Assay results as given in patent US20240116985A1, “STAPLED PEPTIDES AND METHODS THEREOF” (priority 2020, published 2024).
≈ marks a conversion by molar mass, not a printed value. Where two headings read alike, the source gives them in different places.

Legend:
CHI Log D procedure = assay type: physicochemical; details: for CHI Log D: pH 7.4; for chromatographic logD / logD: pH 7.4, CHI Log D
Solubility in PBS = assay type: physicochemical
Summary of the method: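 HPLC quantitation of peptide remaining in the PBS supernatant after ultracentrifugation, referenced to a 50 μM solution in DMSO.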

SMILES | Solubility (Solubility in PBS) [µM] | logD (CHI Log D procedure) | Solubility (Solubility in PBS; Solubility (uM)) [µM] | also measured
CC[C@H](C)[C@@H]1NC(=O)[C@H](CC(=O)O)NC(=O)[C@]2(CC=CCCCC3(CCCC=CCCCCCC[C@@](C)(C(=O)N[C@@H](Cc4ccccc4)C(=O)N[C@@H](Cc4ccccc4)C(=O)N[C@@H](CCC(N)=O)C(N)=O)NC(=O)[C@H](CCC(N)=O)NC(=O)[C@H](Cc4csc5ccccc45)NC(=O)[C@H](C)NC(=O)[C@H](C)NC(=O)[C@H](CCC(=O)O)NC(=O)[C@H](CC(=O)O)NC3=O)NC1=O)CCCN2C(C)=O (stereo partly drawn) [I-585, Ac-PL3-Asp-Ile-B5-Asp-Glu-Ala-Ala-BztA-Gln-S8-Phe-Phe-Gln-NH2] | 50 (≈ 94.2 µg/mL) | – | – | CHI Log D (CHI Log D procedure): 2.364
CC[C@H](C)[C@@H]1NC(=O)[C@H](CC(=O)O)NC(=O)[C@]2(CC=CCCCC3(CCCC=CCCCCCC[C@@](C)(C(=O)N[C@@H](Cc4ccccc4)C(=O)N[C@@H](Cc4ccccc4)C(=O)N[C@@H](CCC(N)=O)C(N)=O)NC(=O)[C@H](CCC(N)=O)NC(=O)[C@H](Cc4csc5ccccc45)NC(=O)[C@H](C)NC(=O)[C@H](C)NC(=O)[C@H](CCC(=O)O)NC(=O)[C@H](CC(=O)O)NC3=O)NC1=O)CCCN2C(C)=O (stereo partly drawn) [I-586, Ac-PL3-Asp-Ile-B5-Asp-Glu-Ala-Ala-BztA-Gln-S8-Phe-Phe-Gln-NH2] | 50 (≈ 94.2 µg/mL) | – | – | CHI Log D (CHI Log D procedure): 2.39
CC[C@H](C)[C@@H]1NC(=O)[C@H](CC(=O)O)NC(=O)[C@]2(CC=CCCCC3(CCCC=CCCCCCC[C@@](C)(C(=O)N[C@@H](CC(=O)O)C(=O)N[C@@H](Cc4csc5ccccc45)C(=O)N[C@@H](CCC(N)=O)C(N)=O)NC(=O)[C@H](CCC(N)=O)NC(=O)[C@H](Cc4ccccc4)NC(=O)[C@H](C)NC(=O)[C@H](C)NC(=O)[C@H](CCC(=O)O)NC(=O)[C@H](Cc4ccccc4)NC3=O)NC1=O)CCCN2C(C)=O (stereo partly drawn) [I-587, Ac-PL3-Asp-Ile-B5-Phe-Glu-Ala-Ala-Phe-Gln-S8-Asp-BztA-Gln-NH2] | 50 (≈ 94.2 µg/mL) | – | – | chromatographic logD (CHI Log D procedure): 2.15
CC[C@H](C)[C@@H]1NC(=O)[C@H](Cc2ccccc2)NC(=O)[C@]2(CC=CCCCC3(CCCC=CCCCCCC[C@@](C)(C(=O)N[C@@H](Cc4ccccc4)C(=O)N[C@@H](Cc4csc5ccccc45)C(=O)N[C@@H](CCC(N)=O)C(N)=O)NC(=O)[C@H](CCC(N)=O)NC(=O)[C@H](CC(=O)O)NC(=O)[C@H](C)NC(=O)[C@H](C)NC(=O)[C@H](CCC(=O)O)NC(=O)[C@H](CC(=O)O)NC3=O)NC1=O)CCCN2C(C)=O (stereo partly drawn) [I-588, Ac-PL3-Phe-Ile-B5-Asp-Glu-Ala-Ala-Asp-Gln-S8-Phe-BztA-Gln-NH2] | – | – | – | chromatographic logD (CHI Log D procedure): 2.87; solubility at 15 min (Solubility in PBS; Solubility (uM)): 49 µM (≈ 92.3 µg/mL)
CC(=O)N1CCC[C@]12CC=CCCCC1(CCCC=CCCCCCC[C@@](C)(C(=O)N[C@@H](Cc3ccccc3)C(=O)N[C@@H](Cc3csc4ccccc34)C(N)=O)NC(=O)[C@H](CC(N)=O)NC(=O)[C@H](Cc3ccccc3)NC(=O)[C@H](C)NC(=O)[C@H](C)NC(=O)[C@H](CCC(=O)O)NC(=O)[C@H](CC(=O)O)NC1=O)NC(=O)[C@H](CC1CCCCC1)NC(=O)[C@H](CC(=O)O)NC2=O (stereo partly drawn) [I-626, Ac-PL3-Asp-Cha-B5-Asp-Glu-Ala-Ala-Phe-Asn-S8-Phe-BztA-NH2] | 50 (≈ 89.1 µg/mL) | – | – | CHI Log D (CHI Log D procedure): 2.048
CC[C@H](C)[C@@H]1NC(=O)[C@H](CC(=O)O)NC(=O)[C@]2(CC=CCCCC3(CCCC=CCCCCCC[C@@](C)(C(=O)N[C@@H](Cc4ccccc4)C(=O)N[C@@H](Cc4csc5ccccc45)C(=O)N4CCC[C@H]4C(N)=O)NC(=O)[C@H](CCC(N)=O)NC(=O)[C@H](Cc4ccccc4)NC(=O)[C@H](C)NC(=O)[C@H](C)NC(=O)[C@H](CCC(=O)O)NC(=O)[C@H](CC(=O)O)NC3=O)NC1=O)CCCN2C(C)=O (stereo partly drawn) [I-637, Ac-PL3-Asp-Ile-B5-Asp-Glu-Ala-Ala-Phe-Gln-S8-Phe-BztA-Pro-NH2] | 50 (≈ 92.6 µg/mL) | – | – | CHI Log D (CHI Log D procedure): 2.554
CC(=O)N1CCC[C@]12CC=CCCCC1(CCCC=CCCCOC(=O)N3CC[C@@](C(=O)N[C@@H](Cc4ccsc4)C(=O)N[C@@H](Cc4csc5ccccc45)C(=O)N[C@@H](Cc4c[nH]cn4)C(N)=O)(C3)NC(=O)[C@H](CC(N)=O)NC(=O)[C@H](Cc3ccccc3)NC(=O)[C@H](C)NC(=O)[C@H](CCCCNC(=O)Cn3cc(CNC(=O)c4ccc5c(c4)C4(OC5=O)c5ccc(O)cc5Oc5cc(O)ccc54)nn3)NC(=O)[C@H](CC(=O)O)NC(=O)[C@H](CC(=O)O)NC1=O)NC(=O)[C@H](CC(C)(C)C)NC(=O)[C@H](CC(=O)O)NC2=O (stereo partly drawn) [I-865, Ac-PL3-Asp-Npg-B5-Asp-Asp-[FAM6Ppg][1TriAc]Lys-Ala-Phe-Asn-PyrS2-3Thi-BztA-His-NH2] | – | 1.62 | 38 (≈ 94.3 µg/mL) | –
CC(=O)N1CCC[C@]12CC=CCCCC1(CCCC=CCCCOC(=O)N3CC[C@@](C(=O)N[C@@H](Cc4ccsc4)C(=O)N[C@@H](Cc4csc5ccccc45)C(=O)N[C@@H](CCC(N)=O)C(N)=O)(C3)NC(=O)[C@H](CC(N)=O)NC(=O)[C@H](Cc3ccccc3)NC(=O)[C@H](C)NC(=O)[C@H](CCCCNC(=O)c3ccc(-n4cc(CNC(=O)c5ccc6c(c5)C5(OC6=O)c6ccc(O)cc6Oc6cc(O)ccc65)nn4)cc3)NC(=O)[C@H](CC(C)C)NC(=O)[C@H](CC(=O)O)NC1=O)NC(=O)[C@H](CC(C)(C)C)NC(=O)[C@H](CC(=O)O)NC2=O (stereo partly drawn) [I-867, Ac-PL3-Asp-Npg-B5-Asp-Leu-[FAM6Ppg][p1TB]Lys-Ala-Phe-Asn-PyrS2-3Thi-BztA-Gln-NH2] | – | 1.8 | 13 (≈ 32.9 µg/mL) | –
CC(=O)N1CCC[C@]12CC=CCCCC1(CCCC=CCCCOC(=O)N3CC[C@@](C(=O)N[C@@H](Cc4ccsc4)C(=O)N[C@@H](Cc4csc5ccccc45)C(=O)N[C@@H](CCC(N)=O)C(N)=O)(C3)NC(=O)[C@H](CC(C)C)NC(=O)[C@H](Cc3ccccc3)NC(=O)[C@H](C)NC(=O)[C@H](CCCCNC(=O)c3ccc(-n4cc(CNC(=O)c5ccc6c(c5)C5(OC6=O)c6ccc(O)cc6Oc6cc(O)ccc65)nn4)cc3)NC(=O)[C@H](CC(C)C)NC(=O)[C@H](CC(=O)O)NC1=O)NC(=O)[C@H](CC(C)(C)C)NC(=O)[C@H](CC(=O)O)NC2=O (stereo partly drawn) [I-868, Ac-PL3-Asp-Npg-B5-Asp-Leu-[FAM6Ppg][p1TB]Lys-Ala-Phe-Leu-PyrS2-3Thi-BztA-Gln-NH2] | 10 (≈ 25.3 µg/mL) | 1.88 | – | –
CC(=O)N1CCC[C@]12CC=CCCCC1(CCCC=CCCCOC(=O)N3CC[C@@](C(=O)N[C@@H](Cc4ccsc4)C(=O)N[C@@H](Cc4csc5ccccc45)C(=O)N[C@@H](CCC(N)=O)C(N)=O)(C3)NC(=O)[C@H](Cc3ccccc3)NC(=O)[C@H](Cc3ccccc3)NC(=O)[C@H](C)NC(=O)[C@H](CCCCNC(=O)c3ccc(-n4cc(CNC(=O)c5ccc6c(c5)C5(OC6=O)c6ccc(O)cc6Oc6cc(O)ccc65)nn4)cc3)NC(=O)[C@H](CC(C)C)NC(=O)[C@H](CC(=O)O)NC1=O)NC(=O)[C@H](CC(C)(C)C)NC(=O)[C@H](CC(=O)O)NC2=O (stereo partly drawn) [I-869, Ac-PL3-Asp-Npg-B5-Asp-Leu-[FAM6Ppg][p1TB]Lys-Ala-Phe-Phe-PyrS2-3Thi-BztA-Gln-NH2] | 10 (≈ 25.6 µg/mL) | 1.91 | – | –
CC(=O)N1CCC[C@]12CC=CCCCC1(CCCC=CCCCOC(=O)N3CC[C@@](C(=O)N[C@@H](Cc4ccsc4)C(=O)N[C@@H](Cc4csc5ccccc45)C(=O)N[C@@H](CCC(N)=O)C(=O)N[C@@H](C)C(=O)N[C@@H](C)C(=O)N[C@@H](C)C(N)=O)(C3)NC(=O)[C@H](CC(N)=O)NC(=O)[C@H](Cc3ccccc3)NC(=O)[C@H](C)NC(=O)[C@H](C)NC(=O)[C@H](CC(=O)O)NC(=O)[C@H](CC(=O)O)NC1=O)NC(=O)[C@H](CC(C)(C)C)NC(=O)[C@H](CC(=O)O)NC2=O (stereo partly drawn) [I-870, Ac-PL3-Asp-Npg-B5-Asp-Asp-Ala-Ala-Phe-Asn-PyrS2-3Thi-BztA-Gln-Ala-Ala] | – | 1.99 | 47 (≈ 100 µg/mL) | –
CC(=O)N1CCC[C@]12CC=CCCCC1(CCCC=CCCCOC(=O)N3CC[C@@](C(=O)N[C@@H](Cc4ccsc4)C(=O)N[C@@H](Cc4csc5ccccc45)C(=O)N[C@@H](CCC(N)=O)C(=O)N[C@H](C)C(=O)N[C@@H](C)C(=O)N[C@@H](C)C(N)=O)(C3)NC(=O)[C@H](CC(N)=O)NC(=O)[C@H](Cc3ccccc3)NC(=O)[C@H](C)NC(=O)[C@H](C)NC(=O)[C@H](CC(=O)O)NC(=O)[C@H](CC(=O)O)NC1=O)NC(=O)[C@H](CC(C)(C)C)NC(=O)[C@H](CC(=O)O)NC2=O (stereo partly drawn) [I-871, Ac-PL3-Asp-Npg-B5-Asp-Asp-Ala-Ala-Phe-Asn-PyrS2-3Thi-BztA-Gln-dAla-Ala] | – | 1.92 | 45 (≈ 95.9 µg/mL) | –
CC(=O)N1CCC[C@]12CC=CCCCC1(CCCC=CCCCOC(=O)N3CC[C@@](C(=O)N[C@@H](Cc4ccsc4)C(=O)N[C@@H](Cc4csc5ccccc45)C(=O)N[C@@H](CCC(N)=O)C(=O)N[C@H](C)C(=O)N[C@H](C)C(=O)N[C@H](C)C(N)=O)(C3)NC(=O)[C@H](CC(N)=O)NC(=O)[C@H](Cc3ccccc3)NC(=O)[C@H](C)NC(=O)[C@H](C)NC(=O)[C@H](CC(=O)O)NC(=O)[C@H](CC(=O)O)NC1=O)NC(=O)[C@H](CC(C)(C)C)NC(=O)[C@H](CC(=O)O)NC2=O (stereo partly drawn) [I-872, Ac-PL3-Asp-Npg-B5-Asp-Asp-Ala-Ala-Phe-Asn-PyrS2-3Thi-BztA-Gln-dAla-dAla] | 50 (≈ 107 µg/mL) | 1.89 | – | –
CC(=O)N1CCC[C@]12CC=CCCCC1(CCCC=CCCCOC(=O)N3CC[C@@](C(=O)N[C@@H](Cc4ccsc4)C(=O)N[C@@H](Cc4csc5ccccc45)C(=O)N[C@@H](CCC(N)=O)C(=O)N[C@@H](C)C(=O)N[C@@H](C)C(=O)N[C@H](C)C(N)=O)(C3)NC(=O)[C@H](CC(N)=O)NC(=O)[C@H](Cc3ccccc3)NC(=O)[C@H](C)NC(=O)[C@H](C)NC(=O)[C@H](CC(=O)O)NC(=O)[C@H](CC(=O)O)NC1=O)NC(=O)[C@H](CC(C)(C)C)NC(=O)[C@H](CC(=O)O)NC2=O (stereo partly drawn) [I-873, Ac-PL3-Asp-Npg-B5-Asp-Asp-Ala-Ala-Phe-Asn-PyrS2-3Thi-BztA-Gln-Ala-Ala] | – | 2 | 47 (≈ 100 µg/mL) | –
